Legend:
Type in all cases: cell-based
[1] = system: HT29; assay: Cell-Titer-Glo inhibition of cell proliferation, HT29; settings: Homo sapiens, HT-29, CellTiter-Glo, 72 h
Experimental: (§1) V. Cell-Titer-Glo—Inhibition of Cell Proliferation by PLK1 Inhibitors
(§2) Exponentially growing cell lines of different tumor origins, cultured in appropriate media containing 10% fetal bovine serum at 37° C. in a 5% CO2 incubator were plated at low density (less than 2000 cells/well) in 96-well plates. Twenty four hours post-plating, cells were treated with different concentrations of test compounds ranging from 10 uM to 0.04 nM. Several wells were left untreated as a control. Seventy two hours post-treatment, cell numbers were determined using 50-100 ul per well of CellTiter-Glo (Promega #G7573). Plates were incubated at room temperature for 15 minutes and the chemiluminescent signal was read on the Victor V or Envison 2100 reader.
(§3) The Cell-Titer Glo data are shown in Table 2 below and represent a compilation of several different experiments, each performed using the general parameters outlined above, although minor variations may have been employed in some instances.

[2] = system: BXPC3; assay: Cell-Titer-Glo inhibition of cell proliferation, BXPC3; settings: Homo sapiens, BXPC-3, CellTiter-Glo, 72 h
Experimental: as §1, §2, §3

[3] = system: Hela; assay: Cell-Titer-Glo inhibition of cell proliferation, Hela; settings: Homo sapiens, CellTiter-Glo, 72 h
Experimental: as §1, §2, §3

[4] = system: HCT116; assay: Methylene blue growth inhibition assay, HCT116; settings: Homo sapiens, HCT-116; methylene blue, 72 h, HCT116; read-out: HCT116 IC50
Experimental: (§4) II. Methylene Blue Growth Inhibition Assay—Inhibition of Cell Proliferation by PLK1 Inhibitors
(§5) Generally, exponentially growing cell lines of different tumor origins, cultured in appropriate media containing 10% fetal bovine serum at 37° C. in a 5% CO2 incubator were plated at low density (less than 2000 cells/well) in 96-well plates. […]. Seventy two hours post-treatment, cell numbers were determined using 100 μl per well of methylene blue (Sigma M9140) (0.5% in 50:50 Ethanol:water). Stain was incubated at room temperature for 30 minutes before plates were rinsed and dye solubilized in 1% N-lauroyl sarcosine, sodium salt, (Sigma L5125, in PBS) (further details of a methylene blue assay are described below). Plates were read on a microplate reader, measuring the OD at 620 nm.
(§6) . The data are shown in Table 1 below and represent a compilation of several different experiments, each performed using the general parameters outlined above, although minor variations may have been employed in some instances.
(§7) In one assay, normal human foreskin fibroblasts (HFF), human colon (HCT116, RKO), lung (H460, A549) and breast (MCF7) tumor cell lines were cultured in high glucose DMEM (Life Technologies) containing 10% fetal bovine serum (FBS) at 37° C. in a humidified 5% CO2, 95% air incubator. Cells were harvested using trypsin/EDTA, counted using a haemocytometer, and plated in 100 μL of culture media per well, at the following densities, in a 96-well tissue culture plate (Falcon 3075): HFF 5,000 cells/well, HCT116 3,000 cells/well, RKO 2,500 cells/well, H460 2,500 cells/well, A549 5,000 cells/well, MCF7 4,000 cells/well. The next day, compounds were diluted in low glucose DMEM containing 100 μg/mL gentamicin, at twice the final required concentration, from 10 mM stock solutions in DMSO. 100 μL/well of these dilutions were added to the 100 μL of media currently in the assay plates. Medium containing 0.6% DMSO was added to control wells. The final concentration of DMSO in all wells was 0.3%. Cells were incubated at 37° C., 5% CO2 for 72 h. Medium was removed by aspiration. Cell biomass was estimated by staining cells with 80 μL per well methylene blue (Sigma M9140, 0.5% in 50:50 ethanol:water), and incubation at room temperature for 30-60 min. Stain was removed by aspiration and the plates rinsed by immersion in water, then air-dried. To release stain from the cells, 100 μL of solubilization solution was added (1% N-lauroyl sarcosine, Sodium salt, Sigma L5125, in PBS), and plates were shaken gently for about 30 min. Optical density at 620 nm was measured on a microplate reader. Percent inhibition of cell growth was calculated relative to vehicle treated control wells. […].

[5] = system: COLO205; assay: Cell-Titer-Glo inhibition of cell proliferation, COLO205; settings: Homo sapiens, COLO 205, CellTiter-Glo, 72 h
Experimental: as §1, §2, §3

[6] = system: SKOV-3; assay: Cell-Titer-Glo inhibition of cell proliferation, SKOV-3; settings: Homo sapiens, SK-OV-3, CellTiter-Glo, 72 h
Experimental: as §1, §2, §3

[7] = system: A549-L; assay: Cell-Titer-Glo inhibition of cell proliferation, A549-L; settings: CellTiter-Glo, 72 h
Experimental: as §1, §2, §3

[8] = system: A549; assay: Methylene blue growth inhibition assay, A549; settings: Homo sapiens; methylene blue, 72 h, A549; read-out: A549 IC50
Experimental: as §4, §5, §6, §7

[9] = system: ASPC3; assay: Cell-Titer-Glo inhibition of cell proliferation, ASPC3; settings: CellTiter-Glo, 72 h
Experimental: as §1, §2, §3

[10] = system: HCT116; assay: Cell-Titer-Glo inhibition of cell proliferation, HCT116; settings: Homo sapiens, HCT-116, CellTiter-Glo, 72 h
Experimental: as §1, §2, §3

[11] = system: H460; assay: Methylene blue growth inhibition assay, H460; settings: Homo sapiens, NCI-H460; methylene blue, 72 h, H460; read-out: H460 IC50
Experimental: as §4, §5, §6, §7

[12] = system: normal human foreskin fibroblasts (HFF); assay: Methylene blue growth inhibition assay, HFF; settings: Fibroblast, methylene blue, 72 h, HFF normal fibroblasts, read-out: HFF IC50
Experimental: as §4, §5, §6, §7

[13] = system: LNCaP; assay: Cell-Titer-Glo inhibition of cell proliferation, LNCaP; settings: Homo sapiens, CellTiter-Glo, 72 h
Experimental: as §1, §2, §3

Work on `C[C@@H](Oc1cc(-n2cnc3ccc(CN4CCN(C)CC4)cc32)sc1C(N)=O)c1ccccc1C(F)(F)F` [Example 3, 5-{6-[(4-Methylpipiperazin-1-yl)methyl]-1H-benzimidazol-1-yl}-3-{(1R)-1-[2-(trifluoromethyl)phenyl]ethoxy}thiophene-2-carboxamide] yielded an IC50 [1] of under 0.5 µM, an IC50 [2] of under 0.5 µM and an IC50 [3] of under 0.5 µM. The IC50 [4] was under 0.1 µM, the IC50 [5] was under 0.5 µM and the IC50 [6] was under 0.5 µM. The IC50 [7] was under 0.5 µM, the IC50 [8] was under 0.1 µM and the IC50 [9] was under 0.5 µM. For the same compound, the IC50 [10] was under 0.5 µM, the IC50 [11] was under 0.1 µM and the IC50 [12] was under 0.1 µM. The IC50 [13] was under 0.5 µM.

— patent US7595330B2, “Benzimidazole thiophene compounds” (SmithKline Beecham Corporation, priority 2005, dated 2009)
